Results from patent US20090312250A1 (POSTECH ACADEMY-INDUSTRY FOUNDATION, priority 2006, published 2009).

How the values were obtained:
MIN6 cells [1] = experiment: Insulin secretion assay in MIN6 cells; type: cell-based, mouse; settings: for effect on EGF-induced insulin secretion: pre-treatment, then 15 nM EGF for 1 min, butanols 0.4%, 10 min
Method: Cell Culture The mouse insulin-producing cells MIN6m9 provided by Dr. Susumu Seino (Division of Cellular and Molecular Medicine, Kobe University Graduate School of Medicine, Kobe, Japan) were used between passages 19 and 25 and cultured in DMEM containing 25 mM glucose, 10 mM HEPES, 10% (v/v) fetal calf serum, 50 IU/ml penicillin, and 50 μg/ml streptomycin at 37° C. in a humidified CO2-controlled (5%) incubator. MIN6 cells were transfected using LipofectAMINE, as described previously (Kim et al., J Immunol 163:5462-5470, 1999) Transfection efficiency is about 30-40% by using LipofectAMINE.
(§1) Insulin Secretion Assay: Batches of 10-15 isolated islets or 1×10^6 cells/well grown in 12- or 24-well plates were washed twice with KRB supplemented with 0.2% bovine serum albumin (BSA), and then incubated for 60 min at 37° C. in the KRB solution. We used same number of islets in a same set of experiment. At the end of incubation, the solutions were replaced with fresh KRB containing test reagents and incubated for the designated time. The incubation medium was sampled and centrifuged to remove cells, and the supernatant was assayed for insulin with a radioimmunoassay (RIA) kit (Linco, St. Louis, Mo.).
The MIN6 cells were plated onto 24-well plates and grown for 24 h. The cells were washed twice with KRB supplemented with 0.2% BSA, and then incubated for 60 min at 37° C. in the KRB solution.
The incubation medium was sampled and centrifuged to remove cells, and the supernatant was assayed for insulin levels. The data shown are the mean±S.D. from two independent assays by duplicate. *, P<0.05 compared with not treated (NT) cells.
The incubation medium was sampled and centrifuged to remove cells, and the supernatant was assayed for insulin levels. The data shown are the mean±S.D. from two independent assays by duplicate. *, P<0.05 compared with not treated cells.
The incubation medium was sampled and centrifuged to remove cells, and the supernatant was assayed for insulin levels. The data shown are the mean±S.D. from two independent assays by duplicate. * or **, P<0.05 compared with 2.7 or 11 mM glucose-treated cells.
The incubation medium was sampled and centrifuged to remove cells, and the supernatant was assayed for insulin levels.
In FIG. 3B, the MIN6 cells were plated onto 24-well plates and grown for 24 h. The cells were washed twice with KRB supplemented with 0.2% BSA, and then incubated for 60 min at 37° C. in the KRB solution. […] The incubation medium was sampled and centrifuged to remove cells, and the supernatant was assayed for insulin levels.

MIN6 cells [2] = experiment: [Ca2+]i measurement in MIN6 cells (Fluo-3 AM, confocal microscope); type: cell-based, mouse
Method: Changes in intracellular Ca2+ levels were monitored using a Ca2+-sensitive dye under a confocal microscope. Cells were loaded with […] Fluo-3 AM for 40 min at room temperature. After washing with Krebs-Ringer bicarbonate (KRB; 129 mM NaCl, 5 mM NaHCO3, 4.8 mM KCl, 1.2 mM KH2PO4, 1.0 mM CaCl2, 1.2 mM MgSO4, 2.7 mM glucose, and 10 mM HEPES, pH 7.4) buffer, the cells were further incubated for 15 min in the absence of Fluo-3 AM to de-esterify the dye. To exclude the possible effects of dye loading, the present inventors normalized levels with saponin at the end of the experiments. To normalize, the present inventors measured the residual fluorescence (Fo) at the end of the experiment, and subtracted that from the fluorescence under experimental conditions (F). Excitation of Fluo-3 AM was performed at 488-nm by an argon laser, and the emission range was 515-nm. Images were captured on an inverted confocal microscope (Zeiss LSM 510 Meta, Oberkochen, Germany) with a 20× objective lens. The MIN6 cells were plated onto glass dishes or 24-well plates and grown for 24 h. The cells were washed twice with KRB supplemented with 0.2% BSA, and then incubated for 60 min at 37° C. in the KRB solution. In FIG. 2A, at the end of incubation, the solutions were replaced with fresh KRB containing Fluo-3 AM dissolved (1 mg/ml) in DMSO, and incubated for 1 h. […] Images were captured on an inverted confocal microscope with a 20× objective lens. To normalize, the present inventors measured the residual fluorescence (Fo) at the end of the experiment, and subtracted that from the fluorescence under experimental conditions (F). The data shown are the mean±S.E., n=7.

PLD = PLD activity assay in MIN6 cells (PBt formation); type: cell-based, mouse; settings: for effect on EGF-induced PLD activity: 30 min pre-incubation, then 15 nM EGF for 1 min
Method: PLD Activity Assay in Cells: Cells grown in 6-well plates were washed twice with KRB, and then labeled with [3H]myristic acid for 4 h at 37° C. in the KRB solution. PLD activity was assayed by measuring the formation of phosphatidylbutanol (PBt) (Kim J H et al., J Immunol 163:5462-5470, 1999). The intensities of PBt spots in the presence of 0.4% 1-butanol were measured, and PLD activity was obtained by subtracting the corresponding intensities of spots obtained in the absence of 1-butanol.
In FIG. 3A, the MIN6 cells were plated onto 6-well plates and grown for 24 h. The cells were washed twice with KRB, and then incubated for 4 h at 37° C. in the KRB solution in the presence of [^3H]myristic acid. […] The data shown are the mean±S.D. from two independent assays by duplicate.
In FIG. 4A, the MIN6 cells were plated onto 6-well plates and grown for 24 h. The cells were washed twice with KRB, and then incubated for 4 h at 37° C. in the KRB solution in the presence of [^3H]myristic acid. […] The intensities of PBt spots after 1 min accumulation in the presence of 1-butanol were measured, and results were obtained by subtracting the corresponding intensities of spots obtained in the absence of 1-butanol. The data shown are the mean±S.D. from two independent assays by duplicate. *, P<0.05 compared with EGF-treated cells.

ICR mice = experiment: Plasma insulin levels in ICR mice after intravenous injection; type: in vivo, mouse; settings: glucose 0.5 g/kg
Method: (§2) Measurement of Plasma Glucose and Plasma Insulin Levels: 7- to 8-week-old male ICR mice were purchased from Hyochang Science (Seoul, Korea). C57BLKSJ-db/db mice were purchased from SLC (Japan). […] Concentrations of plasma glucose were measured by the glucose oxidase method with a portable glucose meter (Gluco-Dr, Korea). Plasma was separated by centrifugation and the plasma insulin assay was performed using a RIA kit. Animal care was conducted in accordance with our institution's guidelines.

mouse pancreatic islets = experiment: Insulin secretion assay in mouse pancreatic islets; type: cell-based; settings: 1 min treatment
Method: as §1
To prepare mouse pancreatic islets, pancreatic islets were isolated from 7- to 8-week-old male BALB/c mice (Hyochang Science, Korea), as described previously (Jonas J C, et al., Diabetes 47:1266-1273, 1998). Isolated islets were transferred onto a 12 well plate, with 10-15 islets per well. We used same number of islets in a same set of experiment. The islets were maintained for up to 2 days in RPMI1640 medium containing 5 mM glucose and 10% fetal calf serum, and supplemented with 100 µg/ml streptomycin and 100 U/ml penicillin.
The mouse pancreatic islets were plated onto 12-well plates and grown for 24 h. The islets were washed twice with KRB supplemented with 0.2% BSA, and then incubated for 60 min at 37° C. in the KRB solution. […]

C57BLKSJ-db/db mice [3] = experiment: Plasma glucose levels in obese db/db mice after intravenous injection; type: in vivo, mouse; settings: EGF 50 μg/kg intravenous
Method: as §2

C57BLKSJ-db/db mice [4] = experiment: Plasma insulin levels in obese db/db mice after intravenous injection; type: in vivo, mouse; settings: EGF 50 μg/kg intravenous, 10 min after injection
Method: as §2
Plasma insulin levels before and 10 min after injection were compared. […] All animals had free access to water. Animal care was conducted in accordance with our institution's guidelines.

RINm5F = experiment: Insulin release in RINm5F cell line (data not shown); type: cell-based

CC(C)(C)O [t-butanol, reference compound]
effect on EGF-induced insulin secretion (MIN6 cells [1]; MIN6 cells): but not by t-butanol treatment

O=C(O)CN(CCOCCOCCN(CC(=O)O)CC(=O)O)CC(=O)O [EGTA]
effect on EGF-stimulated extracellular Ca2+ influx (MIN6 cells [2]; 30 min pre-incubation, then 15 nM EGF): reduced | effect on EGF-induced PLD activity (PLD): inhibited most of the PLD activity

CCCCO [1-butanol, reference compound]
effect on EGF-induced insulin secretion (MIN6 cells [1]; MIN6 cells): inhibited

O=C[C@H](O)[C@@H](O)[C@H](O)[C@H](O)CO [glucose, reference compound]
time required for Ca2+ influx (MIN6 cells [2]; data not shown): 3 to 4 min | plasma insulin levels (ICR mice): increased plasma insulin levels

Epidermal growth factor [EGF]
insulin levels at basal concentration of glucose (MIN6 cells [1]; 2.7 mM glucose, 15 or 30 nM EGF, 5 min): increased insulin levels | glucose-induced insulin release at high glucose levels (MIN6 cells [1]; 11 mM glucose, 15 or 30 nM EGF, 5 min): additively increased glucose-induced insulin release | effective time of EGF treatment for insulin secretion (MIN6 cells [1]; MIN6 cells, 15 nM EGF): 1 to 2 min | kinetics of stimulation of insulin secretion (MIN6 cells [1]; MIN6 cells, 15 nM EGF compared with 11 mM glucose): kinetics more rapid than glucose | effective concentration of EGF for insulin secretion (MIN6 cells [1]; MIN6 cells, 1 min incubation): 1.5 to 15 nM | insulin secretion (MIN6 cells [1]; MIN6 cells, 1 min treatment): significantly increased insulin secretion | extracellular Ca2+ influx (MIN6 cells [2]; MIN6 cells, 15 nM EGF): stimulated extracellular Ca2+ influx | time to PLD activation by EGF stimulation (PLD; 15 nM EGF): ≤ 2 min | insulin secretion (mouse pancreatic islets; 15 nM EGF): rapidly increased insulin secretion | specificity of the insulin secretion effect among growth factors (mouse pancreatic islets; data not shown): specific among various growth factors | plasma insulin levels (ICR mice): increased plasma insulin levels | plasma glucose (C57BLKSJ-db/db mice [3]): reduced plasma glucose | plasma insulin levels (C57BLKSJ-db/db mice [4]): increased plasma insulin levels | insulin release (RINm5F): could stimulate insulin release

CC(=O)OCOC(=O)CN(CC(=O)OCOC(C)=O)c1ccccc1OCCOc1ccccc1N(CC(=O)OCOC(C)=O)CC(=O)OCOC(C)=O [BAPTA/AM, 1,2-Bis(2-aminophenoxy)ethane-N,N,N′,N′-tetraacetic acid tetrakis (acet-oxymethyl ester)]
effect on EGF-induced PLD activity (PLD): inhibited most of the PLD activity
